In patent US10308643B2, “Heterocyclic compound” (Takeda Pharmaceutical Company Limited, priority 2015, dated 2019):

Columns and labels:
HDAC6 enzyme = target: T1, HDAC6 enzyme (Homo sapiens, UniProt Q9UBN7); test: HDAC1/6 Enzyme Inhibitory Assay (HDAC-Glo I/II Assay kit), HDAC6; format: biochemical; settings: 1 μM test compound, wells without enzyme = 100% inhibition; for inhibition at 1 µM: read-out: HDAC6 inhibitory rate (%) (1 μM)
T1 construct: transducing full length HDAC1 and HDAC6 genes into Sf-9 insect cells; GST; purchased SignalChem; host or cells: Sf-9 insect cells
T1 sequence (Q9UBN7 1-1215): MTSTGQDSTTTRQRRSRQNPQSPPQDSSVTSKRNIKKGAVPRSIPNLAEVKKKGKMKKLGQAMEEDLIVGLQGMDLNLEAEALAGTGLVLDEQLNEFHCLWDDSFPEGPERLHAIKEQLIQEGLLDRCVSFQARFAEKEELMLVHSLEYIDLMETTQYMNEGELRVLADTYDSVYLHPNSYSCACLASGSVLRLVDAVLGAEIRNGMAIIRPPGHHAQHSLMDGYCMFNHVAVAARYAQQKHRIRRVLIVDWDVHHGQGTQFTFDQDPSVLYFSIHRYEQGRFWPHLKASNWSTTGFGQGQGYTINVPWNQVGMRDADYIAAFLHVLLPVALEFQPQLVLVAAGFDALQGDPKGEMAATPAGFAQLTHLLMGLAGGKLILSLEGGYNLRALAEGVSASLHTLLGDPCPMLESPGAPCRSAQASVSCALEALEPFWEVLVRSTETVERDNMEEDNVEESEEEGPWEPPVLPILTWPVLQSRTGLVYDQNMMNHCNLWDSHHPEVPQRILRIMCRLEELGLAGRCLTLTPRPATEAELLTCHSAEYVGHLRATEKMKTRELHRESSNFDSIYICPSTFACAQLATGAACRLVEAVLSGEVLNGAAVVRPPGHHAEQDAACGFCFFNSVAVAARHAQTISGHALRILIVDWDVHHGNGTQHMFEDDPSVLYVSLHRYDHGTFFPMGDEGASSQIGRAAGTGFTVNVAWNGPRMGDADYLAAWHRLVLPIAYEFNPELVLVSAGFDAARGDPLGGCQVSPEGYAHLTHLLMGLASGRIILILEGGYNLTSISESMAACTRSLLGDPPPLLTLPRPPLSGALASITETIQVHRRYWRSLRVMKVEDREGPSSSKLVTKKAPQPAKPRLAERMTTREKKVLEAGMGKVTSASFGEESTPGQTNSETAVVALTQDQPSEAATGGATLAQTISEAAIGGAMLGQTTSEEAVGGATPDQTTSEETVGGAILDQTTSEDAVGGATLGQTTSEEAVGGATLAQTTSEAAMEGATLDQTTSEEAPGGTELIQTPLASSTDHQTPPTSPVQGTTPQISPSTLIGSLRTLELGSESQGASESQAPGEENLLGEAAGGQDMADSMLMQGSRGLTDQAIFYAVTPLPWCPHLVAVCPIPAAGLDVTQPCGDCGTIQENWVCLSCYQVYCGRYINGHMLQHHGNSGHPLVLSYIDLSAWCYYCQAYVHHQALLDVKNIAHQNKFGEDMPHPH
Method in brief: (§1)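 Full-length human HDAC1 or HDAC6, GST-purified from Sf-9 cells, was preincubated with compound for 60 min at room temperature in Tris-HCl pH 7.5 buffer with MgCl2, KCl, NaCl, glutathione and Tween-20. HDAC-Glo I/II substrate-developer was then added and reacted for 20 min before luminescence was read. Inhibition was set relative to no-enzyme wells as 100% inhibition.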

HDAC1 enzyme = target: T2, HDAC1 enzyme (Homo sapiens, UniProt Q13547); test: HDAC1/6 Enzyme Inhibitory Assay (HDAC-Glo I/II Assay kit), HDAC1; format: biochemical; settings: 1 μM test compound, wells without enzyme = 100% inhibition; for inhibition at 1 µM: read-out: HDAC1 inhibitory rate (%) (1 μM)
T2 construct: transducing full length HDAC1 and HDAC6 genes into Sf-9 insect cells; GST; purchased SignalChem; host or cells: Sf-9 insect cells
T2 sequence (Q13547 whole entry): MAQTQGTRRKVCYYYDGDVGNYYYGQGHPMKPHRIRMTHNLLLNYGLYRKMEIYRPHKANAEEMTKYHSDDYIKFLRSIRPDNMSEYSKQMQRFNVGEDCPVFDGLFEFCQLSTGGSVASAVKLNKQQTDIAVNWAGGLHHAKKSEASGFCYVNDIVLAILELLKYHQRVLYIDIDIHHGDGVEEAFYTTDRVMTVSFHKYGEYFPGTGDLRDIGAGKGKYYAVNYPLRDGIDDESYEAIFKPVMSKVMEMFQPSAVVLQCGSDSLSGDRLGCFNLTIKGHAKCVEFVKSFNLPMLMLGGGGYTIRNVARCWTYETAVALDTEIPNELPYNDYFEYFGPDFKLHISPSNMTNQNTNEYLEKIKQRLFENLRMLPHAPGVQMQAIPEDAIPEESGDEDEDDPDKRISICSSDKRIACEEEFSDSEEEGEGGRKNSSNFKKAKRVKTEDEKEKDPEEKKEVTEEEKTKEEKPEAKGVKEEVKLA
Method in brief: as §1

HDAC9 enzyme = target: T3, HDAC9 enzyme (Homo sapiens, UniProt Q9UKV0); test: HDAC9 Enzyme Inhibitory Assay (HDAC-Glo class IIa); format: biochemical; settings: 1 μM test compound, wells without enzyme = 100% inhibition; for inhibition at 1 µM: read-out: HDAC9 inhibitory rate (%) (1 μM)
T3 construct: transducing full length HDAC9 gene into Sf-9 insect cells; made in house; host or cells: Sf-9 insect cells
T3 sequence (Q9UKV0 whole entry, species assumed): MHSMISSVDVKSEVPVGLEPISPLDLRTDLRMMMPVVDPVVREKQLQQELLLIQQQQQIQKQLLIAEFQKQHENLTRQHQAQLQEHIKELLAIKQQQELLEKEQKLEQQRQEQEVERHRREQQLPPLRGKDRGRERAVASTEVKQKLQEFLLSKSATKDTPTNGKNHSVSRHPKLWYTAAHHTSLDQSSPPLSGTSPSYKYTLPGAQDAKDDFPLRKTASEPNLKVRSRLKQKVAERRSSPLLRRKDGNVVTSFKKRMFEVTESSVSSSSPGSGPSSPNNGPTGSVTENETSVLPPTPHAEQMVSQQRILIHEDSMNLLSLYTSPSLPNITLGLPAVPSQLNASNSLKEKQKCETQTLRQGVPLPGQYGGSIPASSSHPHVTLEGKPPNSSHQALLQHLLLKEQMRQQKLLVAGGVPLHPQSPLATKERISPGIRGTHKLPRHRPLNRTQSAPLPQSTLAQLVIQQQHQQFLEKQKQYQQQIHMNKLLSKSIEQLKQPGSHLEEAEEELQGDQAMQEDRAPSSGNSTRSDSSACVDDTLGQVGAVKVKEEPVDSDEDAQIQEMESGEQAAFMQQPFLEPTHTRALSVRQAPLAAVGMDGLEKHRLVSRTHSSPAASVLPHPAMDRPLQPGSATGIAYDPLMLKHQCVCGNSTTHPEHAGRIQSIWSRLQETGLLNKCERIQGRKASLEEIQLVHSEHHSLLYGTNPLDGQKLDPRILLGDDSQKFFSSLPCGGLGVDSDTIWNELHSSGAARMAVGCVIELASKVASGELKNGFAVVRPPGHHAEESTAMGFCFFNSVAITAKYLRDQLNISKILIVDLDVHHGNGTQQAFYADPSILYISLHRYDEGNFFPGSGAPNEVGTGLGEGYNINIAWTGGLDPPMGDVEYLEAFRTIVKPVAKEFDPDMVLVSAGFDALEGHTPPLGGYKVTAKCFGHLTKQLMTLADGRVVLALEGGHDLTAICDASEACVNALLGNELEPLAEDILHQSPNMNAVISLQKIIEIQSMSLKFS
Method in brief: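 Luminescent HDAC-Glo class IIa readout after a 20 min room-temperature reaction; relative inhibition referenced to enzyme-free wells as 100%. Test compound first preincubated 60 min with Sf-9-expressed, Ni-NTA-purified full-length HDAC9 in pH 7.5 Tris buffer containing 135 mM NaCl, 0.6 mM glutathione and 0.01% Tween-20.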

Row | SMILES | inhibition at 1 µM (HDAC6 enzyme) [%] | melting point [°C] | inhibition at 1 µM (HDAC1 enzyme) [%] | inhibition at 1 µM (HDAC9 enzyme) [%] | HDAC6 inhibitory rate (%) (1 μM) (HDAC6 enzyme; 1 µM) | HDAC1 inhibitory rate (%) (1 μM) (HDAC1 enzyme; 1 µM) | HDAC9 inhibitory rate (%) (1 μM) (HDAC9 enzyme; 1 µM)
1 | O=C(N[C@@H]1CCCC[C@H]1N1Cc2ccc(-c3noc(C(F)(F)F)n3)cc2C1=O)[C@@H]1CCCO1 [Example 90, (2S)-N-((1R,2R)-2-(1-oxo-6-(5-(trifluoromethyl)-1,2,4-oxadiazol-3-yl)-1,3-dihydro-2H-isoindol-2-yl)cyclohexyl)tetrahydrofuran-2-carboxamide] | 97 | 132 | 5 | 37 |  |  | 
2 | O=C(N[C@H]1CCOC[C@@H]1N1Cc2ccc(-c3noc(C(F)(F)F)n3)cc2C1=O)[C@H]1CC1(F)F [Example 202, (1R)-2,2-difluoro-N-((3R,4S)-3-(1-oxo-6-(5-(trifluoromethyl)-1,2,4-oxadiazol-3-yl)-1,3-dihydro-2H-isoindol-2-yl)tetrahydro-2H-pyran-4-yl)cyclopropanecarboxamide] | 99 |  | 13 | 59 |  |  | 
3 | O=C(N[C@H]1CCCC[C@@H]1N1Cc2ccc(-c3noc(C(F)(F)F)n3)cc2C1=O)C1CC1 [Example 33, N-((1S,2S)-2-(1-oxo-6-(5-(trifluoromethyl)-1,2,4-oxadiazol-3-y)-1,3-dihydro-2H-isoindol-2-yl)cyclohexyl)cyclopropanecarboxamide] | 83 |  | 7 | 46 |  |  | 
4 | O=C1CCCN1[C@@H]1CCOC[C@H]1N1Cc2ccc(-c3noc(C(F)(F)F)n3)cc2C1=O [Example 178, 2-((3S,4R)-4-(2-oxopyrrolidin-1-yl)tetrahydro-2H-pyran-3-yl)-6-(5-(trifluoromethyl)-1,2,4-oxadiazol-3-yl)isoindolin-1-one] |  |  |  |  | 99 | 8 | 61
